Assay results as given in patent publication US7560473B2 (Institute of Pharmacology and Toxicology Academy of …, priority 2001, dated 2009).
Marks after values point to notes of the source that are not given here.

Assays:
[1] = tested on: outward potassium currents of rat tail arterial SMCs; test: Whole cell recording of outward potassium currents in rat tail arterial SMCs; assay type: cell-based, Wistar rats; settings: for Currents, + Compound: outward potassium current amplitude after compound 100 μmol L^−1 in the bath; for Currents, + Compound / Currents, Control (before compound application): X ± SD n = 5; for Currents, Control (before compound application): outward potassium current amplitude before compound application, same cells
Excerpt: Biological activity experiments 6. The effects of novel compounds on potassium currents in isolated arterial vascular smooth muscle cells (SMCs).
The outward currents were, elicited in rat tail arterial SMCs by superfusing extracellular solution under whole cell recording configuration that the depolarizing pulse were applied from −30 mV to +100 mV with the holding potential of −40 mV in 100 ms, 10 mV clamp steps, a frequency of 5 KHz. The compounds were applied in the bath at the concentrations of 100 μmol L^−1. The amplitude of the outward potassium currents was recorded before and after compound application Values were expressed as means±SD. Statistical significance between two groups was evaluated by student's t-test for paired data * P<0.05 **P<0.01 vs control.
1. Preparation of single smooth muscle cells from rat tail arteries: Male Wistar rats (200-250 g) were killed by exsanguination. The tail artery was dissected out and transferred into cold physiological salt solution (PSS) of the following composition (in mM): NaCl 118.3, KCl 4.7, KH2PO4 1.2, MgSO4 1.2, NaHCO3 25.0, CaCl2 2.5, EDTA 0.026 and Glucose 5.0 pH7.4. With the use of a dissecting microscope, the connective tissues were removed and the artery was cut open longitudinally. Endothelium was removed carefully with a cotton swab then the artery was cut into segments with 1 mm long and placed in 4° C. the extracellular solution containing (in mM) NaCl 130, KCl 5, MgCl2 1.2, HEPES 10, Glucose 10, pH7.2 for 20 min. After this incubation, the medium was changed to enzyme solution which was composed of collagenase I (1 mg ml^−1), papain (5 mg ml^−) and bovine serum albumin (2 mg ml^−1). The tissues, were incubated in this solution for 40 min, and then rinsed three times triturated using a fire-polished Pasteur pipette until the medium turned cloudily. The cell suspension was stored in the refrigerator at 4° C.
3. Whole cell recordings: A bath dish with the smooth muscle cells (SMCs) attached and superfused with the extracellular solution at a flow rate of 2 ml min^−1 was mounted onto the stage of an inverted-phase contrast microscope. The microelectrodes having a resistance of (5-8 MΩ) were made from boroscilicate thin-wall glass capillaries, using an automatic multiple-stage, electronic puller (PP830 Japan) and then heat-polished. After establishing a high resistance seal, the patch membrane was disrupted by negative pressure. A commercial patch clamp amplifier (Axon 200B) was used to generate and apply voltages and sample current signals from the cell.

[2] = tested on: rats anesthetized with pentobarbital sodium; test: Effects on blood pressure, heart rate, cardiac contraction and dilation in rats anesthetized with pentobarbital sodium; assay type: in vivo, Wistar rats; parameters: unit not given here; settings: change after injection through femoral vein, '+' = increase, all others = decrease; for MBP: mean blood pressure: n = 3~5, doses mg/kg: 2, 8, 12: 10, 3-7, 9-11, 40-44: 5; for DBP: diastolic blood pressure / HR: heart rate / LVSP: left ventricular systolic pressure / SBP: systolic blood pressure / Vpm: the physiological velocity of contractile element shorting / −dp/dtmax: the maximal rate of the decrease of left ventricular pressure: mean, n = 3~5, doses mg/kg: 2, 8, 12: 10, 3-7, 9-11, 40-44: 5
Method: Biological activity experiment 1. The effects of 16 compounds represented by formula I on blood pressure, heart rate, cardiac contraction and dilation in rats anesthetized with pentobarbital sodium.
The methods of biological activity experiment 1 were as follows: Male Wistar rats, weighing 280±30 g were purchased from the experimental animal center of Academy of Military Medical Sciences. Rats were anesthetized with pentobarbital sodium (45 mg/kg) by peritoneal injection. A PE50 polyethylene catheter was inserted into the left ventricle through right carotid artery for cardiac function measurement with a pressure energe exchanger, wherein the signal is put into a SMUP-PC biosignal processing system. Cardiac functional parameters such as HR, LVSP, +dp/dtmax, −dp/dtmax and Vpm were recorded. Another two PE50 polyethylene catheters were inserted into the right femoral artery and vein respectively for blood pressure measurement wherein the artery cathether was linked to a four-channel physiology recorder (RM-6000) through a MPU-0.5A Type pressure energe exchanger, which recorded SBP, DBP and MBP, while the vein catheter was used for compound administration. The methods were described by Liu Wei et al: Liu Wei, Wang Hai, Xiao Wen-Bin. […] Bull Acad Mil Med Sci 1996;20(4):245˜248.

[3] = tested on: spontaneously hypertensive rats; test: Acute antihypertensive effects in conscious spontaneously hypertensive rats; assay type: in vivo; settings: po mg/kg: compound 1 3, pinacidil 3, nifedipine 10, bisoprolol 60, captopril 40, means ± SD, 9-13 rats
Excerpt: Biological activity experiment 2. The acute antihypertensive effects of compound 1 in conscious spontaneously hypertensive rats.
The methods of biological activity experiment 2 were described by Long Chao-Liang et al: Long Chao-Liang, Wang Hai, Xiao Wen-Bin. Effects of pinacidil on, hypertensive vascular remodeling. Chin J Pharmacol Toxicol 1997; 11(1):42-46.

[4] = tested on: rats anesthetized with pentobarbital sodium; test: Antagonism of glibenclamide on the cardiovascular effects in anesthetized rats; assay type: in vivo, Wistar rats; settings: iv mg/kg: pinacidil 1.0, nifedipine 1.0, compound 1 0.5, means ± SE
Method: The methods of biological activity experiment 1 were as follows: Male Wistar rats, weighing 280±30 g were purchased from the experimental animal center of Academy of Military Medical Sciences. Rats were anesthetized with pentobarbital sodium (45 mg/kg) by peritoneal injection. A PE50 polyethylene catheter was inserted into the left ventricle through right carotid artery for cardiac function measurement with a pressure energe exchanger, wherein the signal is put into a SMUP-PC biosignal processing system. Cardiac functional parameters such as HR, LVSP, +dp/dtmax, −dp/dtmax and Vpm were recorded. Another two PE50 polyethylene catheters were inserted into the right femoral artery and vein respectively for blood pressure measurement wherein the artery cathether was linked to a four-channel physiology recorder (RM-6000) through a MPU-0.5A Type pressure energe exchanger, which recorded SBP, DBP and MBP, while the vein catheter was used for compound administration. The methods were described by Liu Wei et al: Liu Wei, Wang Hai, Xiao Wen-Bin.
The methods of Biological activity experiment 3 were the same as those described in the biological activity experiment 1.

[5] = A: after administration (30 min after pinacidil, 10 min nifedipine, 15 min compound 1), glibenclamide 20 iv pretreatment
[6] = B: before administration, glibenclamide 20 iv pretreatment ten minutes

Compound: C=CCNC(C)(C)C(C)C [compound 25, N-allyl-2,3-dimethyl-2-butylamine]
- stimulation of potassium channel activities (in words) ([1]; 100 μmol L^−1, rat tail arterial SMCs): Maximum potency
- Currents, + Compound [1]: 1.46 ± 0.50** nA
- Currents, Control (before compound application) [1]: 0.68 ± 0.19 nA

Compound: CCNC(C)(C)C(C)C [compound 4]
- MBP: mean blood pressure [2]: 25
- DBP: diastolic blood pressure [2]: 23
- HR: heart rate [2]: 44
- LVSP: left ventricular systolic pressure [2]: 146
- SBP: systolic blood pressure [2]: 31
- Vpm: the physiological velocity of contractile element shorting [2]: 0.45
- −dp/dtmax: the maximal rate of the decrease of left ventricular pressure [2]: 177
- Currents, + Compound [1]: 0.69 ± 0.14** nA
- Currents, Control (before compound application) [1]: 0.61 ± 0.12 nA

Compound: CC(C)C(C)(C)NC(=O)c1cccnc1 [compound 39]
- Currents, + Compound [1]: 0.51 ± 0.22 nA
- Currents, Control (before compound application) [1]: 0.46 ± 0.14 nA

Compound: CC(C)C(C)(C)NCc1ccccc1 [compound 24]
- Currents, + Compound [1]: 0.63 ± 0.19 nA
- Currents, Control (before compound application) [1]: 0.65 ± 0.19 nA

Compound: COC(=O)C1=C(C)NC(C)=C(C(=O)OC)C1c1ccccc1[N+](=O)[O-] [nifedipine]
- SBP at 1 h after administration ([3]; 1 h): 186 ± 6 mmHg
- heart rates at 1 h ([3]; 1 h, in bpm (unit assumed)): 410 ± 11
- SBP at 3 h after administration ([3]; 3 h): 219 ± 12 mmHg
- heart rates at 3 h ([3]; 3 h, in bpm (unit assumed)): 410 ± 31
- SBP at 5 h after administration ([3]; 5 h): 235 ± 5 mmHg
- heart rates at 5 h ([3]; 5 h, in bpm (unit assumed)): 367 ± 24
- SBP at 9 h after administration ([3]; 9 h): 240 ± 6 mmHg
- heart rates at 9 h ([3]; 9 h, in bpm (unit assumed)): 365 ± 13
- SBP at 12 h after administration ([3]; 12 h): 242 ± 4 mmHg
- heart rates at 12 h ([3]; 12 h, in bpm (unit assumed)): 365 ± 16
- SBP at 24 h after administration ([3]; 24 h): 242 ± 4 mmHg
- heart rates at 24 h ([3]; 24 h, in bpm (unit assumed)): 364 ± 22
- SBP base value ([3]; base value before administration): 242 ± 5 mmHg
- heart rates base value ([3]; base value before administration, in bpm (unit assumed)): 352 ± 19
- DBP [4, 5]: 62 ± 7 mmHg
- LVSP [4, 5]: 113 ± 7 mmHg
- MBP [4, 5]: 76 ± 8 mmHg
- Vpm [4, 5]: 4.2 ± 0.5 /a
- DBP [4, 6]: 95 ± 8 mmHg
- LVSP [4, 6]: 131 ± 6 mmHg
- MBP [4, 6]: 111 ± 7 mmHg
- Vpm [4, 6]: 5.7 ± 0.1 /a

Compound: CNC(C)(C)C(C)C [compound 3]
- MBP: mean blood pressure [2]: 22
- DBP: diastolic blood pressure [2]: 19
- HR: heart rate [2]: 43
- LVSP: left ventricular systolic pressure [2]: 111
- SBP: systolic blood pressure [2]: 29
- Vpm: the physiological velocity of contractile element shorting [2]: 0.49
- −dp/dtmax: the maximal rate of the decrease of left ventricular pressure [2]: 157
- Currents, + Compound [1]: 0.60 ± 0.34 nA
- Currents, Control (before compound application) [1]: 0.56 ± 0.31 nA

Compound: CC(C)C(C)(C)N [compound 2]
- MBP: mean blood pressure [2]: 24
- DBP: diastolic blood pressure [2]: 15
- HR: heart rate [2]: 20
- LVSP: left ventricular systolic pressure [2]: 116
- SBP: systolic blood pressure [2]: 38
- Vpm: the physiological velocity of contractile element shorting [2]: 1.16
- −dp/dtmax: the maximal rate of the decrease of left ventricular pressure [2]: 54
- Currents, + Compound [1]: 1.01 ± 0.57 nA
- Currents, Control (before compound application) [1]: 0.91 ± 0.49 nA

Compound: CCC(C)NC(C)(C)C(C)C (stereo not drawn) [compound 13, N-(1-methylpropyl)-2,3-dimethyl-2-butylamine]
- Currents, + Compound [1]: 0.85 ± 0.31** nA
- Currents, Control (before compound application) [1]: 0.55 ± 0.34 nA

Compound: CCCCNC(C)(C)C(C)C [compound 6, N-butyl-2,3-dimehyl-2-butylamine]
- MBP: mean blood pressure [2]: 49
- DBP: diastolic blood pressure [2]: 43
- HR: heart rate [2]: 111
- LVSP: left ventricular systolic pressure [2]: 263
- SBP: systolic blood pressure [2]: 61
- Vpm: the physiological velocity of contractile element shorting [2]: 0.98
- −dp/dtmax: the maximal rate of the decrease of left ventricular pressure [2]: 276
- Currents, + Compound [1]: 1.18 ± 0.54* nA
- Currents, Control (before compound application) [1]: 0.49 ± 0.23 nA

Compound: CC(C)C(C)(C)NCC1CC1 [compound 15, N-cyclopropylmethyl-2,3-dimethyl-2-butylamine]
- Currents, + Compound [1]: 1.30 ± 0.45* nA
- Currents, Control (before compound application) [1]: 0.83 ± 0.24 nA
